Assay results: patent publication US20240360151A1 (SANOFI, priority 2023, published 2024)

Biological target: T1, NLRP3 inflammasome (Homo sapiens, UniProt Q96P20)
T1 construct: endogenous in cells; host or cells: THP-1 monocytic cells
Assay: IL-1β secretion assay (NLRP3 IC50) in LPS-primed, nigericin-activated THP-1 cells, HTRF
Assay type: cell-based
Conditions: monocytic THP-1 cells; LPS 10 ng/mL 3 h priming, then compound + nigericin 10 μM 2 h; relative IC50, 10 concentrations, geometric mean
Protocol: Monocytic THP-1 cells were maintained in RPMI 1640 media (Gibco 21875)+10% FBS, (Gibco 10500)+1% penicillin/streptomycin (Gibco 15140-122). Cells were then plated at 40,000 cells per well in 384-well cell culture plates (CoRNning 3542) and maintained with RPMI1640 (Gibco 11835)+5% FBS (Gibco 10500). Activation of the NLRP3 inflammasome requires both an NF-kB-dependent priming step and the addition of a NLRP3 activator. The priming step was induced by LPS (10 ng/mL, InvivoGen ref tlrl-3pelps) for 3 h at 37° C., then compound, in a 1:3 serial dilution series in DMSO (final concentration DMSO 0.1%), and the activator nigericin (Sigma Aldrich, ref: SML1779) 10 μM (final concentration) were added to the cells and co-incubated for 2 hours. 16 μL supernatant was removed, and IL-1β levels were monitored using an HTRF assay (Human IL1b Kits HTRF Cisbio ref: 62HILBPEH) according to manufacturers' instructions.
Data were expressed as percentage of inhibition (I %) as compared to a maximum signal control containing no small molecule (I %=0%) according to the formula: 1%=(1−((Sample−Min))/((Max−Min)))×100, where: • Sample: Signal obtained in the presence of each compound tested, • Max: Maximum signal in the absence of compound added, • Min: Minimum or background signal obtained in the absence of activation signal.
Relative IC50 (IC50 rel) were obtained from a dose response curve with 10 concentrations. Final IC50 rels are expressed as the geometric mean.
Relative IC50 values were estimated with Biost@t-SPEED v2.4 internal software based on SAS system using the 4-parameter logistic model according to Ratkovsky and Reedy (D. A. Ratkovsky, T. J. Reedy, Choosing near-linear parameters in the four parameters logistic model radioligands and related assays. Biometrics, 42 (1986), 575-582): Y=A+C/((1+exp(−B*(log(X)−M)))), where: • A: Lower asymptote (BOTTOM), • A+C: Upper asymptote (TOP), • M: the logarithm of the concentration estimated at the inflexion point (the logarithm of the relative IC50), • B: Slope at the inflexion point of the curve.

T1 sequence (Q96P20 whole entry): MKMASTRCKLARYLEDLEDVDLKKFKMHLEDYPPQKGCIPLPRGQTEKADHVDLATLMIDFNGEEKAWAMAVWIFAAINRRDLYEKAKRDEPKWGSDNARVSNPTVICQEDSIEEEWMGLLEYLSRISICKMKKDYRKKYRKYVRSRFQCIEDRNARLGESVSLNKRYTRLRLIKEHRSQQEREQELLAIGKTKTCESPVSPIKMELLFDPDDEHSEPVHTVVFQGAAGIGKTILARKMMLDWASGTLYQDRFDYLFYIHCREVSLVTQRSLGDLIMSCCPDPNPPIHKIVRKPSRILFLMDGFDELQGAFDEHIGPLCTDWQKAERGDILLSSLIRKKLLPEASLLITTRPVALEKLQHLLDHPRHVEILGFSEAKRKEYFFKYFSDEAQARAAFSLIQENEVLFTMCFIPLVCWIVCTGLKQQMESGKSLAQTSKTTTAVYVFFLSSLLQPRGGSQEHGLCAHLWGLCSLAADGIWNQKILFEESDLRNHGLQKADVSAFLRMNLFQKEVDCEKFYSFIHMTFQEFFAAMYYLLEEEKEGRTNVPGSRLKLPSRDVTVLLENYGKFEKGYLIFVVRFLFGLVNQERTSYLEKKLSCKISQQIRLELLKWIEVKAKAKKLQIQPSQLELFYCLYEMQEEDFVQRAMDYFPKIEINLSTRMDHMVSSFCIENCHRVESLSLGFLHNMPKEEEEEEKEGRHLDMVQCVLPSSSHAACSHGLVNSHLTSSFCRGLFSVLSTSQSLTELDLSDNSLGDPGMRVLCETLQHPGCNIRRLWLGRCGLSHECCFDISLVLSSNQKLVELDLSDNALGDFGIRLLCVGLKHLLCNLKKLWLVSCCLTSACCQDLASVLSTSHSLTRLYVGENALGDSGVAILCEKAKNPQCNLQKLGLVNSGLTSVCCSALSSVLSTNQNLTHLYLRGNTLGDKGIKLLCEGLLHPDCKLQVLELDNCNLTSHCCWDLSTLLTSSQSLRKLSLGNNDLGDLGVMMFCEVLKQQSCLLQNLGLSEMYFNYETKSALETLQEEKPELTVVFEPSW

| Structure (SMILES) | IC50 [µM] |
| --- | --- |
| CC(=O)N1CC[C@@H]2OCCN(c3ccc(-c4c(C)cc(Cl)cc4O)nn3)[C@@H]2C1 (single isomer, unassigned) [Example 304] | 0.142 |
| Cc1cc(C(F)(F)F)cc(O)c1-c1ccc(N2CCO[C@@H]3CCN(C)C[C@H]32)nn1 (single isomer, unassigned) [Example 301] | 0.868 |
| Cc1cc(C(F)(F)F)cc(O)c1-c1ccc(N2CCOC(CN(C)C)C2)nn1 (stereo not drawn) [Example 24, 2-[6-[2-[(dimethylamino)methyl]morpholin-4-yl]pyridazin-3-yl]-3-methyl-5-(trifluoromethyl)phenol] | 0.638 |
| Cc1cc(C(F)(F)F)cc(O)c1-c1ccc(N2CCO[C@@H]3CN(C)C[C@H]32)nn1 (racemic) [Example 289, 3-methyl-2-[6-[rac-(4aR,7aR)-6-methyl-2,3,4a,5,7,7a-hexahydropyrrolo[3,4-b][1,4]oxazin-4-yl]pyridazin-3-yl]-5-(trifluoromethyl)phenol] | 0.14 |
| CCN1CCO[C@@H]2CN(c3ccc(-c4c(C)cc(C)cc4O)nn3)C[C@H]21 [Example 168, 2-[6-[(4aR,7aR)-4-ethyl-2,3,4a,5,7,7a-hexahydropyrrolo[3,4-b][1,4]oxazin-6-yl]pyridazin-3-yl]-3,5-dimethylphenol] | 3.38 |
| Cc1cc(C)c(-c2ccc(N3CCO[C@H](C(N)=O)C3)nn2)c(O)c1 [Example 181, (2S)-4-[6-(2-hydroxy-4,6-dimethylphenyl)pyridazin-3-yl]morpholine-2-carboxamide] | 1.39 |
| CC(=O)NC[C@@H]1CN(c2ccc(-c3c(C)cc(C)cc3O)nn2)CCO1 [Example 106, N-[[(2R)-4-[6-(2-hydroxy-4,6-dimethyl-phenyl)pyridazin-3-yl]morpholin-2-yl]methyl]acetamide] | 0.174 |
| Cc1cc(C)c(-c2ccc(N3C[C@@H]4NCCO[C@H]4C3)nn2)c(O)c1 [Example 185, 2-[6-[(4aS,7aS)-3,4,4a,5,7,7a-hexahydro-2H-pyrrolo[3,4-b][1,4]oxazin-6-yl]pyridazin-3-yl]-3,5-dimethylphenol] | 3.22 |
| Cc1cc(C)c(-c2ccc(N3CC4(CCC(O)C4)C3)nn2)c(O)c1 (single isomer, unassigned) [Example 95, 2-[6-(2-hydroxy-4,6-dimethyl-phenyl)pyridazin-3-yl]-2-azaspiro[3.4]octan-6-ol] | 2.2 |
| Cc1cc(C)c(-c2ccc(N3CCO[C@@H](CS)C3)nn2)c(O)c1 [Example 305, 3,5-dimethyl-2-[6-[(2R)-2-(sulfanylmethyl)morpholin-4-yl]pyridazin-3-yl]phenol] | 2.82 |
| CCN1CCOC2(COCCN(c3ccc(-c4c(C)cc(C)cc4O)nn3)C2)C1 (stereo not drawn) [Example 317, 2-[6-(4-ethyl-1,11-dioxa-4,8-diazaspiro[5.6]dodecan-8-yl)pyridazin-3-yl]-3,5-dimethyl-phenol] | 3 |
| Cc1cc(C)c(-c2ccc(N3CCC4(CC3)CC(O)C4)nn2)c(O)c1 [Example 3, 7-[6-(2-hydroxy-4,6-dimethyl-phenyl)pyridazin-3-yl]-7-azaspiro[3.5]nonan-2-ol] | 2.03 |
| Cc1cc(C)c(-c2ccc(N3CCO[C@@H](C(C)O)C3)nn2)c(O)c1 (single isomer, unassigned) [Example 108] | 0.545 |
| CN(C)C[C@@H]1CN(c2ccc(-c3c(O)cc(Cl)cc3Cl)nn2)CCO1 [Example 43, 3,5-dichloro-2-[6-[(2R)-2-[(dimethylamino)methyl]morpholin-4-yl]pyridazin-3-yl]phenol] | 0.603 |
| Cc1cc(C)c(-c2ccc(N3CCO[C@@H](C(=O)N(C)C)C3)nn2)c(O)c1 [Example 184, (2R)-4-[6-(2-hydroxy-4,6-dimethylphenyl)pyridazin-3-yl]-N,N-dimethylmorpholine-2-carboxamide] | 0.66 |

Second part, the molecule after the results:

| IC50 [µM] | Structure (SMILES) |
| --- | --- |
| 2.04 | Cc1cc(C)c(-c2ccc(N3CC[C@]4(COCCN4C)C3)nn2)c(O)c1 [Example 450, 3,5-dimethyl-2-[6-[(5R)-6-methyl-9-oxa-2,6-diazaspiro[4.5]decan-2-yl]pyridazin-3-yl]phenol] |
| 0.37 | Cc1cc(C(F)(F)F)cc(O)c1-c1ccc(N2CCO[C@H]3CCOC[C@@H]32)nn1 (racemic) [Example 448, 3-methyl-2-[6-[rac-(4aS,8aS)-3,4a,5,7,8,8a-hexahydro-2H-pyrano[4,3-b][1,4]oxazin-4-yl]pyridazin-3-yl]-5-(trifluoromethyl)phenol] |
| 7.15 | Cc1cc(C)c(-c2ccc(N3CCOCC34CN(C)C4)nn2)c(O)c1 [Example 455, 3,5-dimethyl-2-[6-(2-methyl-8-oxa-2,5-diazaspiro[3.5]nonan-5-yl)pyridazin-3-yl]phenol] |
| 0.546 | CCN1CC[C@H]2CCN(c3ccc(-c4c(C)cc(Cl)cc4O)nn3)[C@H]2C1 (single isomer, unassigned) [Example 496] |
| 0.007 | Cc1cc(C)c(-c2ccc(N3CCC[C@@H]4CCN(C)C[C@@H]43)nn2)c(O)c1 [Example 519, 2-[6-[(4aR,8aR)-7-methyl-2,3,4,4a,5,6,8,8a-octahydro-1,7-naphthyridin-1-yl]pyridazin-3-yl]-3,5-dimethyl-phenol] |
| < 0.0003 | CCN1CC[C@@H]2CCN(c3cc(C)c(-c4ccc(C)cc4O)nn3)[C@@H]2C1 (single isomer, unassigned) [Example 474] |
| 0.127 | Cc1cc(C(F)(F)F)cc(O)c1-c1ccc(N2CCOC(CO)C2=O)nn1 (single isomer, unassigned) [Example 419] |
| 0.125 | OC[C@@H]1CN(c2cc(C(F)F)c(-c3ccc4c(c3O)CCC4)nn2)CCO1 [Example 345, 5-[4-(difluoromethyl)-6-[(2S)-2-(hydroxymethyl)morpholin-4-yl]pyridazin-3-yl]indan-4-ol] |
| 1.02 | Cc1cc(C)c(-c2ccc(N3CCCC34CCCN(C)C4)nn2)c(O)c1 (stereo not drawn) [Example 428, 3,5-dimethyl-2-[6-(9-methyl-1,9-diazaspiro[4.5]decan-1-yl)pyridazin-3-yl]phenol] |
| 0.167 | CN1CC[C@H]2OCCN(c3cc(C(F)F)c(-c4cccc(F)c4O)nn3)[C@H]2C1 [Example 351, 2-[6-[(4aS,8aR)-6-methyl-3,4a,5,7,8,8a-hexahydro-2H-pyrido[4,3-b][1,4]oxazin-4-yl]-4-(difluoromethyl)pyridazin-3-yl]-6-fluoro-phenol] |
| 0.481 | CC(=O)N1C[C@@H]2OCCN(c3ccc(-c4c(C)cc(C(F)(F)F)cc4O)nn3)[C@@H]2C1 (racemic) [Example 335, 1-[rac-(4aR,7aS)-4-[6-[2-hydroxy-6-methyl-4-(trifluoromethyl)phenyl]pyridazin-3-yl]-2,3,4a,5,7,7a-hexahydropyrrolo[3,4-b][1,4]oxazin-6-yl]ethanone] |
| 0.296 | CC(=O)N1CC[C@H]2[C@@H]1CCN2c1ccc(-c2c(C)cc(C(F)(F)F)cc2O)nn1 (racemic) [Example 377, 1-[rac-(3aS,6aS)-1-[6-[2-hydroxy-6-methyl-4-(trifluoromethyl)phenyl]pyridazin-3-yl]-2,3,3a,5,6,6a-hexahydropyrrolo[3,2-b]pyrrol-4-yl]ethanone] |
| 0.711 | Cc1cc(C)c(-c2ccc(N3CC(=O)N[C@@H](CO)C3)nn2)c(O)c1 (single isomer, unassigned) [Example 329] |
| 0.815 | Cc1cc(C)c(-c2ccc(N3CC[C@@]4(CN(C)CCO4)C3)nn2)c(O)c1 [Example 446, 3,5-dimethyl-2-[6-[(5R)-9-methyl-6-oxa-2,9-diazaspiro[4.5]decan-2-yl]pyridazin-3-yl]phenol] |
| 0.912 | Cc1cc(C)c(-c2cc(C(F)F)c(N3CC[C@@H]4CCN(C)C[C@@H]43)nn2)c(O)c1 (single isomer, unassigned) [Example 488] |
| 0.135 | Cc1ccc(-c2nnc(N3CC[C@@H]4CCN(C)C[C@@H]43)cc2C(F)F)c(O)c1 (single isomer, unassigned) [Example 506] |
| 0.195 | CC(=O)N1CC[C@H]2OCCN(c3cc(C(F)F)c(-c4ccc(Cl)cc4O)nn3)[C@H]2C1 [Example 442, 1-[(4aS,8aR)-4-[6-(4-chloro-2-hydroxy-phenyl)-5-(difluoromethyl)pyridazin-3-yl]-3,4a,5,7,8,8a-hexahydro-2H-pyrido[4,3-b][1,4]oxazin-6-yl]ethanone] |
| 0.31 | CC(=O)N1CC[C@H]2CCN(c3ccc(-c4c(C)cc(C)cc4O)nn3)[C@H]2C1 (racemic) [Example 394, 1-[rac-(3aR,7aR)-1-[6-(2-hydroxy-4,6-dimethyl-phenyl)pyridazin-3-yl]-3,3a,4,5,7,7a-hexahydro-2H-pyrrolo[2,3-c]pyridin-6-yl]ethanone] |
